Source: ChEMBL document CHEMBL3885861, “Open TG-GATES”

Organism: Rattus norvegicus
Test: Open TG-GATES - Regimen: Single
Type: toxicity, organism-based, Sprague-Dawley
Parameters: regimen Single, gender Male, age 6 weeks
Conditions: in vivo, po, route gavage; for Bas / Eos / Ht / Lym / MCH / Mono / Neu / RBC / Ret: tissue Blood; for KIDNEY_L / KIDNEY_R / KIDNEY_TOTAL: tissue Kidney; for ALP / ALT / AST / CRE / DBIL / IP / K / LDH / Na / PL / RALB / TBIL / TC / TG / TP / gamma-GTP / Ca: tissue Plasma; for LIVER: tissue Liver
[1] = 0 mg/kg, 3 h, dose level Control
[2] = 0 mg/kg, 6 h, dose level Control
[3] = 0 mg/kg, 9 h, dose level Control
[4] = 0 mg/kg, 24 h, dose level Control
[5] = 200 mg/kg, 24 h, dose level Low

## COc1cc2ncnc(Nc3ccc(F)c(Cl)c3)c2cc1OCCCN1CCOCC1 [GEFITINIB]
[1]
  TERMINAL_BW: 216 g
  Bas: 0%
  Eos: 0.8%
  Ht: 39.6%
  Lym: 74.2%
  MCH: 21.5 pg
  Mono: 2.6%
  Neu: 21.8%
  RBC: 610.2 x10_4/ul
  Ret: 9.3%
  KIDNEY_L: 0.9 g
  KIDNEY_R: 0.9 g
  KIDNEY_TOTAL: 1.8 g
  ALP: 1581.8 IU/L
  ALT: 42.2 IU/L
  AST: 73.2 IU/L
  CRE: 0.2 mg/dL
  DBIL: 0 mg/dL
  IP: 8.2 mg/dL
  K: 4.1 meq/L
  LDH: 183.2 IU/L
  Na: 143.1 meq/L
  PL: 148.6 mg/dL
  RALB: 3.9 g/dL
  TBIL: 0.02 mg/dL
  TC: 85.4 mg/dL
  TG: 64.2 mg/dL
  TP: 5.5 g/dL
  gamma-GTP: 1.1 IU/L
[2]
  TERMINAL_BW: 212.6 g
  Bas: 0%
  Eos: 0.8%
  Ht: 40.1%
  Lym: 83.6%
  MCH: 21.4 pg
  Mono: 2.4%
  Neu: 12.8%
  RBC: 623.6 x10_4/ul
  Ret: 9.7%
  KIDNEY_L: 0.9 g
  KIDNEY_R: 1 g
  KIDNEY_TOTAL: 1.9 g
  LIVER: 9.6 g
  ALP: 1643.4 IU/L
  ALT: 41.2 IU/L
  AST: 71 IU/L
  CRE: 0.1 mg/dL
  Ca: 10.6 mg/dL
  DBIL: 0.002 mg/dL
  IP: 9.6 mg/dL
  K: 4.2 meq/L
  LDH: 200.6 IU/L
  Na: 142.5 meq/L
  PL: 158.8 mg/dL
  RALB: 3.9 g/dL
  TBIL: 0.018 mg/dL
  TC: 90.8 mg/dL
  TG: 78.2 mg/dL
  TP: 5.4 g/dL
  gamma-GTP: 1 IU/L
[3]
  TERMINAL_BW: 210 g
  Bas: 0%
  Eos: 1%
  Ht: 38.5%
  Lym: 77.6%
  MCH: 21.3 pg
  Mono: 3.4%
  Neu: 17.6%
  RBC: 601.2 x10_4/ul
  Ret: 9.4%
  KIDNEY_L: 1 g
  KIDNEY_R: 0.9 g
  KIDNEY_TOTAL: 1.9 g
  LIVER: 9 g
  ALP: 1562.4 IU/L
  ALT: 35.2 IU/L
  AST: 67.2 IU/L
  CRE: 0.1 mg/dL
  DBIL: 0.004 mg/dL
  IP: 10 mg/dL
  K: 4.2 meq/L
  LDH: 169 IU/L
  Na: 143.4 meq/L
  PL: 139.6 mg/dL
  RALB: 3.9 g/dL
  TBIL: 0.022 mg/dL
  TC: 81.6 mg/dL
  TG: 67.3 mg/dL
  TP: 5.4 g/dL
  gamma-GTP: 1 IU/L
[4]
  TERMINAL_BW: 223.4 g
  Bas: 0%
  Eos: 1%
  Ht: 39.9%
  Lym: 78.5%
  MCH: 20.8 pg
  Mono: 3.5%
  Neu: 16%
  RBC: 619.8 x10_4/ul
  Ret: 8.2%
  KIDNEY_L: 1 g
  KIDNEY_R: 1 g
  KIDNEY_TOTAL: 1.9 g
  LIVER: 10.6 g
  ALT: 44.5 IU/L
  AST: 75.8 IU/L
  CRE: 0.2 mg/dL
  Ca: 10.8 mg/dL
  DBIL: 0 mg/dL
  IP: 7.4 mg/dL
  K: 4.4 meq/L
  LDH: 145.5 IU/L
  Na: 142.1 meq/L
  PL: 149.5 mg/dL
  RALB: 4.2 g/dL
  TBIL: 0.01 mg/dL
  TC: 79 mg/dL
  TG: 122.7 mg/dL
  TP: 5.7 g/dL
  gamma-GTP: 1.3 IU/L
200 mg/kg, 3 h, dose level Low
  TERMINAL_BW: 214.5 g
  Bas: 0%
  Eos: 0.8%
  Ht: 36.1%
  Lym: 74.4%
  MCH: 20.9 pg
  Mono: 3%
  Neu: 21.4%
  RBC: 577.2 x10_4/ul
  Ret: 8.9%
  KIDNEY_L: 1 g
  KIDNEY_R: 1 g
  KIDNEY_TOTAL: 2 g
  LIVER: 9.2 g
  ALP: 1618.4 IU/L
  ALT: 52 IU/L
  AST: 82.8 IU/L
  CRE: 0.1 mg/dL
  Ca: 9.9 mg/dL
  DBIL: 0.016 mg/dL
  IP: 9.2 mg/dL
  K: 4.1 meq/L
  LDH: 220.4 IU/L
  Na: 141.6 meq/L
  PL: 147.4 mg/dL
  RALB: 3.8 g/dL
  TBIL: 0.066 mg/dL
  TC: 97 mg/dL
  TG: 39.9 mg/dL
  TP: 5.3 g/dL
  gamma-GTP: 0.9 IU/L
200 mg/kg, 6 h, dose level Low
  TERMINAL_BW: 210.7 g
  Bas: 0%
  Eos: 0.6%
  Ht: 37.3%
  Lym: 79.4%
  MCH: 21.5 pg
  Mono: 3.6%
  Neu: 15.8%
  RBC: 579.2 x10_4/ul
  Ret: 9.1%
  KIDNEY_L: 0.9 g
  KIDNEY_R: 0.9 g
  KIDNEY_TOTAL: 1.9 g
  LIVER: 8.9 g
  ALP: 1407.4 IU/L
  ALT: 53.8 IU/L
  AST: 78.6 IU/L
  CRE: 0.2 mg/dL
  Ca: 9.9 mg/dL
  DBIL: 0.018 mg/dL
  IP: 9.6 mg/dL
  K: 4 meq/L
  LDH: 142.6 IU/L
  Na: 141.5 meq/L
  PL: 142.8 mg/dL
  RALB: 3.9 g/dL
  TBIL: 0.076 mg/dL
  TC: 93 mg/dL
  TG: 31.4 mg/dL
  TP: 5.4 g/dL
  gamma-GTP: 0.9 IU/L
200 mg/kg, 9 h, dose level Low
  TERMINAL_BW: 210 g
  Bas: 0%
  Eos: 0.6%
  Ht: 38.5%
  Lym: 78.4%
  MCH: 20.9 pg
  Mono: 3.2%
  Neu: 17.2%
  RBC: 611 x10_4/ul
  Ret: 8.8%
  KIDNEY_L: 0.9 g
  KIDNEY_R: 0.9 g
  KIDNEY_TOTAL: 1.8 g
  LIVER: 8.6 g
  ALP: 1488 IU/L
  ALT: 48.2 IU/L
  AST: 78.4 IU/L
  CRE: 0.2 mg/dL
  Ca: 9.9 mg/dL
  DBIL: 0.01 mg/dL
  IP: 9.5 mg/dL
  K: 4.3 meq/L
  Na: 143.6 meq/L
  PL: 146 mg/dL
  RALB: 3.8 g/dL
  TBIL: 0.048 mg/dL
  TC: 93.6 mg/dL
  TG: 39 mg/dL
  TP: 5.4 g/dL
  gamma-GTP: 1.1 IU/L
[5]
  TERMINAL_BW: 215.5 g
  Bas: 0%
  Eos: 0.8%
  Ht: 40.7%
  Lym: 66%
  MCH: 20.6 pg
  Mono: 4%
  Neu: 28.6%
  RBC: 635 x10_4/ul
  Ret: 8.2%
  KIDNEY_L: 1 g
  KIDNEY_R: 1 g
  KIDNEY_TOTAL: 2 g
  LIVER: 9.5 g
  ALP: 1548.6 IU/L
  ALT: 39.6 IU/L
  AST: 72.8 IU/L
  CRE: 0.2 mg/dL
  Ca: 10.7 mg/dL
  DBIL: 0.004 mg/dL
  IP: 8.6 mg/dL
  K: 4.4 meq/L
  LDH: 215.2 IU/L
  Na: 142.9 meq/L
  PL: 166 mg/dL
  RALB: 4 g/dL
  TBIL: 0.022 mg/dL
  TG: 69.4 mg/dL
  TP: 5.5 g/dL
  gamma-GTP: 1.2 IU/L
600 mg/kg, 3 h, dose level Middle
  TERMINAL_BW: 215 g
